Source: patent US11413285B2, “PDE III inhibitors for treatment of asymptomatic heart failure” (priority 2004, dated 2022)
Where a name gives a salt, the structure may show the parent alone. Read-outs that look alike come from different tables or passages of the source.

Columns and labels:
[1] = tested on: dogs with clinically overt heart failure due to valve insufficiency; assay: Double-blind randomized positive controlled multi-centre field trial, pimobendan versus benazepril; type: in vivo, dog; conditions: for dogs that died or were euthanised due to cardiac reasons: 56-days study period, 41 dogs pimobendan group, 35 dogs benazepril group; for ISACHC classification Ib (Score=2), no clinical symptoms, share of cases / overall efficacy rated as very good or good, share of cases: Day 56; for ISACHC heart failure classification improved, share of cases: after the 56 day treatment period; for median survival time: long-term survival data
Description: A double-blind randomized positive controlled multi-centre field trial has been carried out in order to evaluate the clinical efficacy of pimobendan treatment at a daily dose of 0.4-0.6 mg/kg in comparison to an angiotensin-converting-enzyme (ACE) inhibitor treatment with benazepril hydrochloride at a daily dose of approximately 0.25-0.5 mg/kg body weight. Both treatments could be combined with furosemide (up to 8 mg/kg per day) or anti-arrhythmic drugs as appropriate. The study was conducted at 11 centers in Europe by experienced veterinary cardiologists under the rules of Good Clinical Practice (GCP). Mandatory minimum duration of treatment was 56 days for each patient. Dogs were examined on Day 0 prior to first treatment and on Day 7 and 56 after initiation of therapy. In order to obtain long-term survival data, the investigator had the option to continue therapy after Day 56. In the optional study period treatment code for the animal was decoded, as it was not allowed to add pimobendan to the benazepril group, in order to maintain an appropriate […] control group. All other licensed concomitant therapies were allowed. For survival analysis, animals that dropped out or changed treatment due to therapy failure were also rated as dead. However, these cases were statistically evaluated as censored data.
Primary parameter for conclusion on efficacy was the clinical severity of heart failure symptoms, classified according to the recommendations of the International Small Animal Cardiac Health Council (ISACHC). Secondary parameters were exercise tolerance, demeanor, findings of the respiratory and circulatory system, overall efficacy rating, as well as, echocardiography data.
Overall 76 dogs, 41 dogs in the pimobendan group and 35 dogs in the benazepril group were included. […] Mean duration of symptoms prior to inclusion was 4.05 months in the pimobendan and 2.77 months in the benazepril group. There were no clinically relevant differences between the groups prior to initiation of therapy in any of the parameters investigated.
The radiographs have been made in a left to right lateral view. For the determination of cardiac size a vertebral scale system was used.
In the lateral radiographs, the long axis of the heart (L) was measured with a caliper extending from the ventral aspect of the left main stem bronchus (tracheal bifurcation hilus, carina) to the most distant contour of the left ventricular apex. The caliper was repositioned along the vertebral column beginning at the cranial edge of the 4th thoracic vertebra. The length of the heart was recorded as the number of vertebrae caudal of that point and estimated to the nearest 0.1 of a vertebra. The maximum perpendicular short axis (S) was measured in the same manner beginning at the 4th thoracic vertebra.
The length in vertebrae (v) of the long and short axes were then added to obtain a vertebral heart sum (VHS) which provided a single number representing heart size proportionate to the size of the dog. The normal range of VHS in healthy dogs is 8.5 v to 10.5 v (mean of 9.7 v).

[2] = tested on: dogs with DCM; conditions: dogs with DCM in the LIVE study; cited from earlier work
[3] = tested on: human patients with heart failure; conditions: long-term oral use; cited from earlier work
[4] = tested on: Cocker spaniels and Dobermanns with DCM; conditions: for mean survival time / survival time, range: in addition to digoxin, enalapril, furosemide
From the text: A double-blind study has been carried out in order to evaluate the long-term efficacy and tolerance to pimobendan and its effect on long-term survival in cocker spaniels and Dobermanns with DCM.
Materials and Methods: Cocker spaniels (n=10) and Dobermanns (n=10) presenting to the Cardiopulmonary Service of the R(D)SVS with DCM were recruited for the study with owners' consent. After stabilization on conventional therapy with digoxin, enalapril, and furosemide, dogs received in addition either pimobendan (Vetmedin®) or placebo using a double-blind study design.

[5] = tested on: dogs suffering of occult dilated cardiomyopathy; assay: Study in dogs with occult dilated cardiomyopathy (ISACHC class I); type: in vivo, dog
From the text: A study is done with pimobendan ([…]®) in dogs suffering of occult dilated cardiomyopathy. Inclusion criteria were dogs which are diagnosed to have a congestive heart failure of class I according to the […]-score due to dilated cardiomyopathy (DCM). Dogs having a having an asymptomatic (occult) heart failure, e.g. asymptomatic DCM must have reduced contractility of the heart or other signs of reduced cardiac efficacy such as volume overload or ventricle dilatation as confirmed by echocardiography. The dogs stay under mono-therapy until signs of congestive heart failure are developing, deteriorate to heart insufficiency score ([…]) class II or III a or b. After confirmation of the congestion by X-ray-radiography the dogs receive furosemid treatment or if the clinical or echocardiographic results makes the addition of another heart failure treatment necessary (primary endpoint). The dogs will be investigated at day 0 prior to first treatment and then approximately 3 month post initiation of the therapy. […] An Echo is performed prior to initiation of therapy (Day 0) and at the following visits to support the clinical diagnosis and to evaluate the effect of the drugs on the contractility of the heart. The echocardiography is performed according to the cardiologic case report form for Irish Wolfhounds. The primary parameter investigated will be the heart insufficiency score ([…]). […]

[6] = Visit 1 (Day 0, prior to first treatment)

## CCOC(=O)[C@H](CCc1ccccc1)N[C@H]1CCc2ccccc2N(CC(=O)O)C1=O [benazepril, benazepril hydrochloride]
[1]
  dogs that died or were euthanised due to cardiac reasons: 7 dogs
  ISACHC classification Ib (Score=2), no clinical symptoms, share of cases: 48%
  overall efficacy rated as very good or good, share of cases: 41%
  ISACHC heart failure classification improved, share of cases: 56%
  median survival time: 228 days

## CCOC(=O)[C@H](CCc1ccccc1)N[C@@H](C)C(=O)N1CCC[C@H]1C(=O)O [enalapril]
[2]
  time to treatment failure: 142.8 days

## COc1ccc(-c2nc3ccc(C4=NNC(=O)CC4C)cc3[nH]2)cc1 (stereo not drawn) [pimobendan, 4,5-dihydro-6-[2-(4-methoxyphenyl)-1H-benzimidazol-5-yl]-5-methyl-3(2H)-p-yridazone]
[3]
  effects on survival: without significantly adverse effects on survival
  exercise tolerance and quality of life: improvement in exercise tolerance and quality of life
[4]; Dobermanns with DCM
  mean survival time: 280 days
  survival time, range: 42 to 369 days
[4]; both breeds, addition to standard treatment regimen
  NYHA-class status of the patient: significant improvement
[4]; cocker spaniels with DCM
  mean survival time: 612 days
  survival time, range: 61 to 1428 days
[4]; dog, in vivo
  tolerance / treatment-related adverse effects: well tolerated and no treatment-related adverse effects were noted
[1]
  dogs that died or were euthanised due to cardiac reasons: 2 dogs
  ISACHC classification Ib (Score=2), no clinical symptoms, share of cases: 76%
  overall efficacy rated as very good or good, share of cases: 85%
  ISACHC heart failure classification improved, share of cases: 84%
  median survival time: 430 days
[1]; [6]
  vertebral heart sum, Max.: 14.5 v
  vertebral heart sum, Mean: 11.83 v
  vertebral heart sum, Median: 11.60 v
  vertebral heart sum, Min.: 9 v
[1]; Visit 3 (Day 56)
  vertebral heart sum, Max.: 14.1 v
  vertebral heart sum, Mean: 11.71 v
  vertebral heart sum, Median: 11.60 v
  vertebral heart sum, Min.: 9.0 v
[1]; Visit 3-1 (Day 56 minus Day 0)
  change in mean heart size (vertebral heart sum), Mean: −0.15 v
  vertebral heart sum, change from baseline, Max.: 0.8 v
  vertebral heart sum, change from baseline, Median: 0.00 v
  vertebral heart sum, change from baseline, Min.: −1.9 v
[5]; dogs with asymptomatic DCM
  Left Ventricular Reverse Remodeling (LVRR), share of treated dogs: ~80%
[5]; interim analysis after 4 years, mono-therapy
  dogs that went into the state of clinical symptoms (Class II): significantly less dogs
